Test results reported in US9566262B2, “Itch suppression by fucoxanthin” (THE RITSUMEIKAN TRUST, priority 2015, dated 2017).

Columns and labels:
[1] = test system: bone marrow-derived mast cells (BMMCs); experiment: Degranulation of BMMCs, β-hexosaminidase release after anti-DNP-IgE / DNP-HSA stimulation; assay type: cell-based, mice; conditions: pre-treated with 0.1 μM, 1 μM or 10 μM before DNP-HSA stimulation, vs DMSO
Experimental: The degranulation of BMMCs was evaluated by measuring β-hexosaminidase activity in the culture solution of the mature mast cells. Bone marrow cells obtained from 8-week-old female mice were cultured in a medium for conditioning containing interleukin-3 (IL-3) for 4 weeks to give mature mast cells. The mature mast cells thus prepared were cultured in 24-well plate (5×10^3 cells/well) overnight, and sensitized with 50 ng/mL anti-DNP-IgE (Sigma Chemicals) at 37° C. for 2 hours. The cells were rinsed by MT buffer (137 mmol/L NaCl, 2.7 mmol/L KCl, 1.8 mmol/L CaCl2, 1 mmol/L MgCl2.6H2O, 5.6 mmol/L glucose, 20 mmol/L HEPES, 0.1% BSA, pH7.3), and pre-treated with 0.1 μM, 1 μM or 10 μM fucoxanthin, or dimethyl sulfoxide (DMSO) for 10 minutes. Then, the cells were treated with 2.5 μg/mL DNP-labeled human serum albumin (Sigma Chemicals) at 37° C. for 30 minutes. After incubation, the supernatant was transferred to a 96-well plate and incubated with 3.3 mM p-nitrophenyl-2-acetamide-2-deoxy-β-glucopyranoside at 37° C. for 25 minutes. Absorbance at 405 nm was measured using microplate reader. The results are shown as percentage of total β-hexosaminidase.

[2] = test system: NC/Nga mice; experiment: BrdU uptake in auricular lymph node cells of NC/Nga mice (ELISA); assay type: in vivo; conditions: topical application for 5 weeks, BrdU i.p. on day 34, vs Vaseline
Source text: On day 12, day 19, day 26 and day 33 after starting application of Vaseline or fucoxanthin, 0.8% picryl chloride (PiCl) was further applied to the back skin of the mice. The behaviors of the mice were observed by video monitoring. On day 34 after starting application of Vaseline or fucoxanthin, bromodeoxyuridine (BrdU, Nacalai Tesque) ([…]) was intraperitoneally administered to the mice. At 5 weeks after starting application of Vaseline or fucoxanthin, the time each mouse spent for scratching behavior in 10 minutes was measured by video monitoring. Then, the mice were sacrificed and the auricular lymph node, blood and skin were obtained. Serum IgE content was determined by enzyme-linked immunosorbent assay (ELISA) using Mouse IgE Assay Kit (Morinaga Institute of Biological Science, Inc.). The auricular lymph node was digested with 0.1% trypsin/0.1% collagenase, the obtained dissociated cells were suspended by pipetting, and the enzyme reaction was stopped by adding Dulbecco's modified Eagle medium (DMEM) containing 10% fetal bovine serum (Wako Pure Chemical Industries, Ltd.). BrdU uptake was determined by ELISA using Cell Proliferation ELISA, BrdU (Colorimetric) (Roche Diagnostics K.K.).

CC(=O)O[C@H]1CC(C)(C)C(=C=C/C(C)=C/C=C/C(C)=C/C=C/C=C(C)/C=C/C=C(\C)C(=O)C[C@@]23O[C@]2(C)C[C@@H](O)CC3(C)C)[C@](C)(O)C1 [fucoxanthin]
release of β-hexosaminidase (degranulation) [1]: suppressed release of β-hexosaminidase in a dose-dependent manner
BrdU uptake (cell proliferation in the auricular lymph node) [2]: not affected
